Reference: patent US10322999B2, “Oxindoles derivatives, preparation method thereof and pharmaceutical compositions for the prevention or treatment of cancer containing the same as an active ingredient” (RESEARCH & BUSINESS FOUNDATION SUNGKYUNKWAN UNIVERSITY, priority 2017, dated 2019)

Assays:
[1] = system: human renal adenocarcinoma cell line (786-O); assay: MTT assay, growth inhibition of 786-O cells; format: cell-based; settings: Homo sapiens, 786-0; MTT, 48 hours incubation, 786-O; read-out: 786-O (IC50)
Description: (§1) To evaluate the anticancer activity of the oxindole derivatives produced and analyzed in examples 1 to 8, MTT assay was performed to confirm the growth inhibitory effect on cancer cells. More specifically, human prostate adenocarcinoma cell line (LNCaP), human breast cancer cell line (MCF-7), human ovarian cancer cell line (SKOV3), human lung cancer cell line […] and human renal adenocarcinoma cell line (786-O) were cultured in DMEM medium supplemented with 1% penicillin/streptomycin and 10% fetal bovine serum (All from Life Technologies, Grand Island, N.Y.). Cells were seeded in 96-well plates (3×10^3 cells/well) containing 100 μL of growth medium for 24 hours. After the medium was removed, 100 μL of each of the different analogues (dissolved in DMSO to 0.025% or less) was added to each well and cultured at 37° C. for 48 hours. After 48 hours of incubation, 100 μL of MTT reagent was added to each well. After incubation at 37° C. for 4 hours, the supernatant was aspirated, and the formazan crystals were dissolved in 100 μL of DMSO at 37° C. for 10 minutes with gentle stirring. Absorbance per well was measured at 540 nm using a VERSA max microplate reader (Molecular Devices Corp.). IC50 values were defined as compound concentrations that inhibited cell proliferation by 50% compared to cells treated with the highest amount of DMSO (0.025%) and were considered to be 100% viability.

[2] = system: human lung cancer cell line (A459); assay: MTT assay, growth inhibition of A549 cells; format: cell-based; settings: Homo sapiens; MTT, 48 hours incubation, A549; read-out: A549 (IC50)
Description: as §1

[3] = system: human ovarian cancer cell line (SKOV3); assay: MTT assay, growth inhibition of SKOV3 cells; format: cell-based; settings: SK-OV-3, MTT, 48 hours incubation, SKOV3, read-out: SKOV3 (IC50)
Description: as §1

[4] = system: human prostate adenocarcinoma cell line (LNCaP); assay: MTT assay, growth inhibition of LNCaP cells; format: cell-based; settings: Homo sapiens; MTT, 48 hours incubation, LNCaP; read-out: LNCaP (IC50)
Description: as §1

[5] = system: all carcinomas; assay: MTT assay, summary over all five cancer cell lines; format: cell-based, human; settings: summary of Table 3, all five cell lines
Description: as §1

[6] = system: human breast cancer cell line (MCF-7); assay: MTT assay, growth inhibition of MCF-7 cells; format: cell-based; settings: MCF7, MTT, 48 hours incubation, MCF-7, read-out: MCF-7 (IC50)
Description: as §1

| IC50 [1] [µM] | IC50 [2] [µM] | IC50 [3] [µM] | IC50 [4] [µM] | IC50 [6] [µM] | SMILES | inhibitory activity against all carcinomas (in words) [5] |
| --- | --- | --- | --- | --- | --- | --- |
| 12.2 | 17.6 | 15.1 | 13.9 | 14.7 | CCCCOC(=O)CC1C(=O)N(Nc2ccccc2CC)c2c(CC)cccc21 (stereo not drawn) [6b, Butyl 2-(7-ethyl-1-((2-ethylphenyl)amino)-2-oxoindolin-3-yl)acetate] | excellent |
| 12.6 | 22.5 | 14.5 | 12.5 | 14.2 | CCc1ccccc1NN1C(=O)C(CC(=O)OCC(C)C)c2cccc(CC)c21 (stereo not drawn) [6d, Isobutyl 2-(7-ethyl-1-((2-ethylphenyl)amino)-2-oxoindolin-3-yl)acetate] | excellent |
| 13.2 | 24.4 | 22.1 | 14.5 | 20.6 | CCCCOC(=O)c1[nH]c2cc(CC)ccc2c1C(=O)OCCCC [7a, Dibutyl 6-ethyl-1H-indole-2,3-dicarboxylate] | excellent |
